The values below come from patent publication US10030027B2, “Soluble guanylate cyclase stimulators” (MERCK SHARP & DOHME CORP., priority 2015, dated 2018).

Each structure is given as a SMILES string.

The target in assay [1] is sGC α1/β1 heterodimer (Homo sapiens (Human), UniProt Q02108+Q02153). Briefly: Cell-based sGC functional assay (cyclic GMP assay for sGC activator: CASA assay). Particulars: CHO-K1/sGC cells; for Emax: CHO-K1, activity expressed as percentage of compound A (standard), read-out: % Activation; for EC50: inflection point, 4P fit, read-out: IP. In a few lines:
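CHO-K1 cells stably expressing human sGC α1/β1 were pre-incubated 30 min at 25° C with or without 1 μM DETA-NO, then exposed to compound for 1 hr at 37° C with 0.5 mM IBMX and 2.5% DMSO final. Intracellular cGMP was measured by HTRF, expressed as % of reference sGC-HDA maximum; inflection point and maximum fold induction came from 4-parameter fits.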

In assay [2] the target is human recombinant sGC enzyme (Homo sapiens (Human), UniProt Q02108+Q02153). The assay can be described thus: Size Exclusion Chromatography (SEC) competition binding assay using [3H] Ex-77B as the radioligand. Particulars: [3H] Ex-77B radioligand, 24 hours at 37° C. In a few lines: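 Recombinant human sGC binding measured by competition against tritiated Ex-77B radioligand, with non-specific binding defined by 1 μM unlabeled Ex-77B.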
A general note: SEC sorts molecules by how far they enter the pores of the column.

The subject of assay [3] is Spontaneously hypertensive rats (SHR). Briefly: Acute efficacy in spontaneously hypertensive rats (SHR). The assay is classed as in vivo, rat. In a few lines:
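Conscious male SHR with aortic telemetry implants given a single oral gavage of compound in 10% transcutol/20% Cremophor/70% water. Blood pressure sampled continuously, averaged hourly and corrected against vehicle baseline recorded the previous day; maximum peak systolic BP decrease reported at stated oral dose (mg/kg).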

Assay [4] concerns hypoxia-induced pulmonary hypertension rat. Briefly: Acute efficacy in hypoxia-induced pulmonary hypertension in rat following intratracheal administration. The assay is classed as in vivo. From the text:
Acute Efficacy in Hypoxia-Induced Pulmonary Hypertension in Rat Following Intratracheal Administration Charles River Sprague-Dawley (CD) male rats weighing approximately 350 g were implanted with HD-S21 dual pressure telemetry transmitters (Data Sciences International (DSI)) into the pulmonary artery and femoral artery. This transmitter enables simultaneous measurement of both pulmonary and systemic hemodynamic parameters in the same animal. After a 7-10 day post-operative recovery period, animals were subjected to a normobaric hypoxic (10% oxygen) environment using a Higher Peak Mountain Air Generator (MAG-10) connected to a modified rodent cage via a fitted inlet port. Oxygen (at 10%), temperature, humidity, and CO2 were controlled within normal range and animals were maintained on a 12 hour light-dark cycle with ad libitum access to food and water. After two weeks exposure to 10% O2 hypoxic environment, systolic pulmonary arterial pressure readings increased from 25 mmHg to greater than 50 mmHg. Using a 48 hour baseline average, animals with readings between 50-110 mmHg (standard deviation of less than 10 mmHg) and minimal changes in systolic systemic blood pressure were enrolled for study. Animals were utilized for up to 2 studies per week for 4 weeks with a minimum of 2 days washout between doses of test agent. Compound or vehicle was administered intra-tracheally under light isoflurane anesthesia (5% in oxygen; flow rate 2.0 L/min for 3 minutes). Once anesthetized, rats were placed on an angled intubation stand in supine position and the trachea visualized using a small laryngoscope. Animals then received either 0.5 mL/kg of vehicle or 0.5 mL/kg vehicle containing compound intra-tracheally delivered via microsprayer by use of a Penn-Century Microsprayer® needle 3″ (Model IA-1B-GP) attached to a 1 mL high pressure syringe (Penn Century-Model B-SYR-PL1000) (Penn-Century, Philadelphia, Pa.). The Microsprayer® tip was inserted into the trachea up to the point at which the bend in the needle is close to the tip of the snout, which positions the tip of the Microsprayer® in front of the carina (bifurcation of trachea at the bronchi). After dose delivery the animal is placed on its back in the home cage for recovery. Hemodynamic measurements were continuously recorded and readings consolidated to hourly moving averages. Each animal received a vehicle on Day 1 followed by vehicle or test agent on Day 2. Change from vehicle baseline was calculated by subtracting the hourly Day 1 vehicle response from the hourly Day 2 response and treatment group data was expressed as mean±SEM. Decreases of systolic blood pressure (SBP) and systolic pulmonary arterial pressure (PAP) were measured at a particular IT dose (mpk milligrams per kilogram) for the following Example compounds.

The term Ki denotes a dissociation constant, usually derived from enzyme kinetics or from competition with a known ligand.

Take `C[C@@]1(c2ccc(CCC(=O)O)cc2)C(=O)Nc2nc(-c3nn(CCC(F)(F)C(F)(F)F)c4ncccc34)nc(N)c21` (single isomer, unassigned) [Example 7A]: in assay [1], the Emax was found to be 98% and the EC50 was determined as 1030 nM. Moreover, in assay [2], the Ki stood at 0.154 nM. The “Category: maximum peak decrease of systolic blood pressure (SBP) in SHR” value (“Category: maximum peak decrease” below) in assay [3] (Dose P.O. 3 mpk) is reported as “A (decrease in SBP in SHRs 5-25 mmHg)”. Besides, the “Category: decrease in SBP (at minimum decrease in PAP of ≥15 mmHg)” value (from here on “Category: decrease in SBP”) in assay [4] (Dose IT 0.1 mpk) is reported as “B (decrease in SBP 5-10 mmHg)”.

`CC(C)(Cc1csc([C@]2(C)C(=O)Nc3nc(-c4nn(CCC(F)(F)C(F)(F)F)c5ncccc45)nc(N)c32)n1)C(=O)O` (single isomer, unassigned) [Example 77B]: in assay [1], the Emax came out at 105% and the EC50 was 489 nM. For the same compound, the Ki in assay [2] is 0.232 nM. In assay [3] (Dose P.O. 1 mpk), the “Category: maximum peak decrease” value is listed as “C (decrease in SBP in SHRs>40 mmHg)”. Moreover, the “Category: decrease in SBP” value in assay [4] (Dose IT 0.03 mpk) is recorded as “A (decrease in SBP 0-5 mmHg)”.

For `CC(C)(Cc1coc(C2(C)C(=O)Nc3nc(-c4nn(CCC(F)(F)C(F)(F)F)c5cc(Cl)ccc45)nc(N)c32)n1)C(=O)O` (stereo not shown) [Example 2A, 3-(2-{4-amino-2-[6-chloro-1-(3,3,4,4,4-pentafluorobutyl)-1H-indazol-3-yl]-5-methyl-6-oxo-6,7-dihydro-5H-pyrrolo[2,3-d]pyrimidin-5-yl}oxazol-4-yl)-2,2-dimethyl-propanoic acid], in assay [1], the Emax amounted to 111% and the EC50 turned out to be 1060 nM. Also, in assay [2], the Ki worked out at 0.322 nM. Besides, the “Category: maximum peak decrease” value in assay [3] (Dose P.O. 3 mpk) is “A (decrease in SBP in SHRs 5-25 mmHg)”. Further, the “Category: decrease in SBP” value in assay [4] (Dose IT 0.03 mpk) is “A (decrease in SBP 0-5 mmHg)”.

`C[C@@]1(c2ccc(CCC(=O)O)cc2)C(=O)Nc2nc(-c3nn(CCC(F)(F)C(F)(F)F)c4cc(Cl)ccc34)nc(N)c21` [Example 10B, (S)-3-(4-{4-Amino-2-[6-chloro-1-(3,3,4,4,4-pentafluorobutyl)-1H-indazol-3-yl]-5-methyl-6-oxo-6,7-dihydro-5H-pyrrolo[2,3-d]pyrimidin-5-yl}phenyl)propanoic acid]: in assay [1], the Emax came to 117% and the EC50 amounted to 456 nM. For the same compound, the Ki in assay [2] amounted to 0.15 nM. In assay [3] (Dose P.O. 3 mpk), the “Category: maximum peak decrease” value is recorded as “A (decrease in SBP in SHRs 5-25 mmHg)”. The “Category: decrease in SBP” value in assay [4] (Dose IT 0.01 mpk) is reported as “A (decrease in SBP 0-5 mmHg)”.

With `C[C@@]1(c2ccc(CCC(=O)O)cc2)C(=O)Nc2nc(-c3nn(CC4CC(F)(F)C4)c4cc(Cl)ccc34)nc(N)c21` [Example 163B, (S)-3-{4-[4-amino-2-{6-chloro-1-[(3,3-difluorocyclo-butyl)methyl]-1H-indazol-3-yl}-5-methyl-6-oxo-6,7-dihydro-5H-pyrrolo[2,3-d]pyrimidin-5-yl]phenyl}propanoic acid], in assay [1], the Emax was found to be 90.8% and the EC50 amounted to 408 nM. In assay [2], the Ki was found to be 1.85 nM. Moreover, in assay [4] (Dose IT 0.03 mpk), the “Category: decrease in SBP” value was “C (decrease in SBP>10 mmHg)”.

`CC(C)(Cc1csc([C@]2(C)C(=O)Nc3nc(-c4nn(Cc5ncccc5F)c5cc(Cl)ccc45)nc(N)c32)n1)C(=O)O` [Example 185A, (S)-3-{2-[4-amino-2-{6-chloro-1-[(3-fluoropyridin-2-yl)methyl]-1H-indazol-3-yl}-5-methyl-6-oxo-6,7-dihydro-5H-pyrrolo[2,3-d]pyrimidin-5-yl]-1,3-thiazol-4-yl}-2,2-dimethyl-propanoic acid]: in assay [1], the Emax is 110% and the EC50 amounted to 426 nM. For the same compound, the Ki in assay [2] amounted to 0.165 nM. The “Category: decrease in SBP” value in assay [4] (Dose IT 0.01 mpk) is “A (decrease in SBP 0-5 mmHg)”.

As to `CC(C)(Cc1coc(C2(C)C(=O)Nc3nc(-c4nn(Cc5cccc(F)c5)c5cc(F)ccc45)nc(N)c32)n1)C(=O)O` (stereo not shown) [Example 195A, 3-(2-{4-amino-2-[6-fluoro-1-(3-fluorobenzyl)-1H-indazol-3-yl]-5-methyl-6-oxo-6,7-dihydro-5H-pyrrolo[2,3-d]pyrimidin-5-yl}-1,3-oxazol-4-yl)-2,2-dimethyl-propanoic acid], in assay [1], the Emax was determined as 103% and the EC50 is 194 nM. Besides, in assay [2], the Ki is 0.092 nM. In addition, in assay [4] (Dose IT 0.01 mpk), the “Category: decrease in SBP” value was “B (decrease in SBP 5-10 mmHg)”.

Regarding `CC(C)(Cc1coc(C2(C)C(=O)Nc3nc(-c4nn(CC5CCCCC5)c5cc(F)ccc45)nc(N)c32)n1)C(=O)O` (stereo not shown) [Example 202A, 3-(2-{4-amino-2-[1-(cyclohexyl-methyl)-6-fluoro-1H-indazol-3-yl]-5-methyl-6-oxo-6,7-dihydro-5H-pyrrolo[2,3-d]pyrimidin-5-yl}-1,3-oxazol-4-yl)-2,2-dimethyl-propanoic acid], in assay [1], the Emax is 122% and the EC50 is 212 nM. For the same compound, the inhibition constant Ki in assay [2] amounted to 0.186 nM. Besides, in assay [4] (Dose IT 0.01 mpk), the “Category: decrease in SBP” value is “A (decrease in SBP 0-5 mmHg)”.

With `CC(C)(CCc1coc(C2(C)C(=O)Nc3nc(-c4nn(Cc5ccccc5F)c5ccccc45)nc(N)c32)n1)C(=O)O` (stereo not shown) [Example 220B, 4-(2-{4-amino-2-[1-(2-fluorobenzyl)-1H-indazol-3-yl]-5-methyl-6-oxo-6,7-dihydro-5H-pyrrolo[2,3-d]pyrimidin-5-yl}-1,3-oxazol-4-yl)-2,2-dimethyl-butanoic acid], in assay [1], the Emax is 113% and the EC50 was determined as 82 nM. For the same compound, in assay [2], the inhibitory constant (Ki) stood at 0.087 nM. For the same compound, in assay [4] (Dose IT 0.01 mpk), the “Category: decrease in SBP” value is reported as “B (decrease in SBP 5-10 mmHg)”.

With `CC(C)(Cc1csc([C@]2(C)C(=O)Nc3nc(-c4nn(Cc5cccc(F)c5)c5ccccc45)nc(N)c32)n1)C(=O)O` [Example 222A, (S)-3-(2-{4-amino-2-[1-(3-fluoro-benzyl)-1H-indazol-3-yl]-5-methyl-6-oxo-6,7-dihydro-5H-pyrrolo[2,3-d]pyrimidin-5-yl}-1,3-thiazol-4-yl)-2,2-dimethyl-propanoic acid], in assay [1], the Emax was 105% and the EC50 is 71 nM. Further, in assay [2], the Ki is 0.112 nM. Moreover, the “Category: decrease in SBP” value in assay [4] (Dose IT 0.01 mpk) is on record as “B (decrease in SBP 5-10 mmHg)”.

`CC1(c2nc(CCC(=O)O)c[nH]2)C(=O)Nc2nc(-c3nn(Cc4ccccc4F)c4cc(Cl)ccc34)nc(N)c21` (stereo not shown) [Example 235B, 3-(2-{4-Amino-2-[6-chloro-1-(2-fluorobenzyl)-1H-indazol-3-yl]-5-methyl-6-oxo-6,7-dihydro-5H-pyrrolo[2,3-d]pyrimidin-5-yl}-1H-imidazol-4-yl)propanoic acid]: in assay [1], the Emax was determined as 86.8% and the EC50 amounted to 626 nM. Moreover, the Ki in assay [2] came to 0.404 nM. Moreover, the “Category: decrease in SBP” value in assay [4] (Dose IT 0.01 mpk) is on record as “A (decrease in SBP 0-5 mmHg)”.

Consider `CC(C)(Cc1coc(C2(C)C(=O)Nc3nc(-c4nn(Cc5ccccc5F)c5cc(Cl)ccc45)nc(N)c32)n1)c1nn[nH]n1` (stereo not shown) [Example 239A, 4-amino-2-[6-chloro-1-(2-fluorobenzyl)-1H-indazol-3-yl]-5-methyl-5-{4-[2-methyl-2-(2H-tetrazol-5-yl)propyl]-1,3-oxazol-2-yl}-5,7-dihydro-6H-pyrrolo[2,3-d] pyrimidin-6-one], for which, in assay [1], the Emax amounted to 62.3% and the EC50 was determined as 350 nM. Further, the Ki in assay [2] is 0.068 nM. In addition, the “Category: decrease in SBP” value in assay [4] (Dose IT 0.01 mpk) is “A (decrease in SBP 0-5 mmHg)”.
